Experimental data from article PMC12631006, “Gold‐Dithiocarbamato Glycoconjugates as Potential Anticancer Agents: Design, Physico‐Chemical Characterization, and In Vitro Biological Activity” (Chembiochem, 2025).

Tested on: HT‐29 cells
Assay: Cell growth inhibition assay (Crystal Violet)
Format: cell-based, human
Settings: HT‐29 colorectal adenocarcinoma cells, 72 h incubation, mean ± SD of three independent experiments
Protocol: (§1) The capability of the gold(III) complexes Au1‐5, the gold(I)‐phosphine derivatives AuP1‐5, and the gold(I)‐carbene counterparts AuC1‐5 to inhibit cell proliferation was assayed on three human tumor cell lines, namely, colorectal adenocarcinoma (HT‐29), metastatic breast adenocarcinoma (MDA‐MB‐231), and breast adenocarcinoma (MCF‐7) cells, whereas human non‐malignant kidney epithelial (RC‐124) cells were used as non‐tumor reference cell line. […]
(§2) high-glucose Dulbecco’s Modified Eagle’s Medium (4.5 g L-1 D-glucose, 4 mM L-glutamine, 1 mM sodium pyruvate, 1.5 g L-1 sodium bicarbonate; Life Technologies). […]
(§3) Cells were cultured at 37°C in 5% CO2 and moisture-enriched atmosphere in the respective medium […]
(§4) (Biochrom) and passaged once a week. […]
(§5) Cell growth inhibition assay
(§6) Stock solutions of the gold(III) complexes Au1-5, and the gold(I) complexes AuP1-5 and AuC1-5 in DMF were freshly prepared and subsequently diluted with the appropriate complete cell culture medium […]
(§7) The in vitro antiproliferative activity of the various gold complexes was determined following a modified protocol previously reported.[68] 100 µL of HT-29 cells (2.5×10^3 cells mL-1), MDA-MB-231 cells […]
(§8) in 96-well cell culture plates and incubated at 37°C in 5% CO2 humidified atmosphere (note: for RC-124, pre-treated plates were used as mentioned above). After 72 h (MDA-MB-231, MCF-7, RC-124) or 48 h (HT-29), cells were treated with the test compounds at different concentrations (0.01-50 µM) and incubated for further 72 h (HT-29) or 96 h (MDA-MB-231, MCF-7, RC-124) at 37°C. The medium was then discarded, cells were washed with fresh PBS solution and harvested, and the Crystal Violet (Sigma-Aldrich/Merck) staining assay was performed to determine cell viability. The inhibition of cell growth induced by the tested compounds was assessed by measuring the absorbance of each well at 590 nm using a Victor X4 microplate reader (Perkin Elmer). Antiproliferative data are expressed as IC50 values, that is, the concentration (μM) of the test agent inhibiting cell proliferation by 50% compared with untreated […]
(§9) control cultures. […]

Row | Structure (SMILES) | IC50 [µM]
1 | O=C(NC1C(O)OC(CO)C(O)C1O)C1CCN(C2=[S+][Au-]([Br])([Br])[S]2)CC1 (mixture of isomers) [Au3, [Au^IIIBr2(SSC‐Inp‐GlcN1)]] | > 50
2 | CCn1[c]([Au-][S]C(=S)N2CCC(C(=O)N[C@H]3[C@@H](OC)O[C@H](CO)[C@@H](O)[C@@H]3O)CC2)[n+](CC)c2ccccc21 [AuC4, [Au^I(SSC‐Inp‐GlcN2)(Et2BzImy)]] | 11.3 ± 0.4
3 | NC(=O)C1CCN(C(=S)[S][Au][PH](c2ccccc2)(c2ccccc2)c2ccccc2)CC1 [AuP2, [Au^I(SSC‐Inp‐NH2)(PPh3)]] | 2.9 ± 0.7
4 | CO[C@H]1O[C@H](CNC(=O)C2CCN(C3=[S+][Au-]([Br])([Br])[S]3)CC2)[C@@H](O)[C@H](O)[C@H]1O [Au5, [Au^IIIBr2(SSC‐Inp‐GlcN3)]] | > 50
5 | O=C(NC1C(O)OC(CO)C(O)C1O)C1CCN(C(=S)[S][Au][PH](c2ccccc2)(c2ccccc2)c2ccccc2)CC1 (mixture of isomers) [AuP3, [Au^I(SSC‐Inp‐GlcN1)(PPh3)]] | 8.8 ± 1.6
6 | CCn1[c]([Au-][S]C(=S)N2CCC(C(=O)NC3C(O)OC(CO)C(O)C3O)CC2)[n+](CC)c2ccccc21 (mixture of isomers) [AuC3, [Au^I(SSC‐Inp‐GlcN1)(Et2BzImy)]] | 22.7 ± 1
7 | CCOC(=O)C1CCN(C(=S)[S][Au][PH](c2ccccc2)(c2ccccc2)c2ccccc2)CC1 [AuP1, [Au^I(SSC‐Inp‐OEt)(PPh3)]] | 0.5 ± 0.1
8 | CO[C@H]1O[C@H](CNC(=O)C2CCN(C(=S)[S][Au][PH](c3ccccc3)(c3ccccc3)c3ccccc3)CC2)[C@@H](O)[C@H](O)[C@H]1O [AuP5, [Au^I(SSC‐Inp‐GlcN3)(PPh3)]] | 6.7 ± 1.1

Tested on: MCF‐7 cells
Assay: Cell growth inhibition assay (Crystal Violet)
Format: cell-based, human
Settings: MCF‐7 breast adenocarcinoma cells, 96 h incubation, mean ± SD of three independent experiments
Protocol: as §1, §2, §3, §4, §5, §6, §7, §8, §9

Row | Structure (SMILES) | IC50 [µM]
9 | O=C(NC1C(O)OC(CO)C(O)C1O)C1CCN(C2=[S+][Au-]([Br])([Br])[S]2)CC1 (mixture of isomers) [Au3, [Au^IIIBr2(SSC‐Inp‐GlcN1)]] | > 50
10 | CCn1[c]([Au-][S]C(=S)N2CCC(C(=O)N[C@H]3[C@@H](OC)O[C@H](CO)[C@@H](O)[C@@H]3O)CC2)[n+](CC)c2ccccc21 [AuC4, [Au^I(SSC‐Inp‐GlcN2)(Et2BzImy)]] | 10.3 ± 0.3
11 | NC(=O)C1CCN(C(=S)[S][Au][PH](c2ccccc2)(c2ccccc2)c2ccccc2)CC1 [AuP2, [Au^I(SSC‐Inp‐NH2)(PPh3)]] | 1.3 ± 0.1
12 | CO[C@H]1O[C@H](CNC(=O)C2CCN(C3=[S+][Au-]([Br])([Br])[S]3)CC2)[C@@H](O)[C@H](O)[C@H]1O [Au5, [Au^IIIBr2(SSC‐Inp‐GlcN3)]] | > 50
13 | O=C(NC1C(O)OC(CO)C(O)C1O)C1CCN(C(=S)[S][Au][PH](c2ccccc2)(c2ccccc2)c2ccccc2)CC1 (mixture of isomers) [AuP3, [Au^I(SSC‐Inp‐GlcN1)(PPh3)]] | 2.6 ± 0.4
14 | CCn1[c]([Au-][S]C(=S)N2CCC(C(=O)NC3C(O)OC(CO)C(O)C3O)CC2)[n+](CC)c2ccccc21 (mixture of isomers) [AuC3, [Au^I(SSC‐Inp‐GlcN1)(Et2BzImy)]] | 12.3 ± 1.4
15 | CCOC(=O)C1CCN(C(=S)[S][Au][PH](c2ccccc2)(c2ccccc2)c2ccccc2)CC1 [AuP1, [Au^I(SSC‐Inp‐OEt)(PPh3)]] | 0.2 ± 0.1
16 | CO[C@H]1O[C@H](CNC(=O)C2CCN(C(=S)[S][Au][PH](c3ccccc3)(c3ccccc3)c3ccccc3)CC2)[C@@H](O)[C@H](O)[C@H]1O [AuP5, [Au^I(SSC‐Inp‐GlcN3)(PPh3)]] | 2.5 ± 0.4

Tested on: MDA‐MB‐231 cells
Assay: Cell growth inhibition assay (Crystal Violet)
Format: cell-based, human
Settings: MDA‐MB‐231 metastatic breast adenocarcinoma cells, 96 h incubation, mean ± SD of three independent experiments
Protocol: as §1, §2, §3, §4, §5, §6, §7, §8, §9

Row | Structure (SMILES) | IC50 [µM]
17 | O=C(NC1C(O)OC(CO)C(O)C1O)C1CCN(C2=[S+][Au-]([Br])([Br])[S]2)CC1 (mixture of isomers) [Au3, [Au^IIIBr2(SSC‐Inp‐GlcN1)]] | > 50
18 | CCn1[c]([Au-][S]C(=S)N2CCC(C(=O)N[C@H]3[C@@H](OC)O[C@H](CO)[C@@H](O)[C@@H]3O)CC2)[n+](CC)c2ccccc21 [AuC4, [Au^I(SSC‐Inp‐GlcN2)(Et2BzImy)]] | 10.5 ± 0.4
19 | NC(=O)C1CCN(C(=S)[S][Au][PH](c2ccccc2)(c2ccccc2)c2ccccc2)CC1 [AuP2, [Au^I(SSC‐Inp‐NH2)(PPh3)]] | 1.4 ± 0.3
20 | CO[C@H]1O[C@H](CNC(=O)C2CCN(C3=[S+][Au-]([Br])([Br])[S]3)CC2)[C@@H](O)[C@H](O)[C@H]1O [Au5, [Au^IIIBr2(SSC‐Inp‐GlcN3)]] | > 50
21 | O=C(NC1C(O)OC(CO)C(O)C1O)C1CCN(C(=S)[S][Au][PH](c2ccccc2)(c2ccccc2)c2ccccc2)CC1 (mixture of isomers) [AuP3, [Au^I(SSC‐Inp‐GlcN1)(PPh3)]] | 2.4 ± 0.8
22 | CCn1[c]([Au-][S]C(=S)N2CCC(C(=O)NC3C(O)OC(CO)C(O)C3O)CC2)[n+](CC)c2ccccc21 (mixture of isomers) [AuC3, [Au^I(SSC‐Inp‐GlcN1)(Et2BzImy)]] | 11.5 ± 0.6
23 | CCOC(=O)C1CCN(C(=S)[S][Au][PH](c2ccccc2)(c2ccccc2)c2ccccc2)CC1 [AuP1, [Au^I(SSC‐Inp‐OEt)(PPh3)]] | 0.6 ± 0.2
24 | CO[C@H]1O[C@H](CNC(=O)C2CCN(C(=S)[S][Au][PH](c3ccccc3)(c3ccccc3)c3ccccc3)CC2)[C@@H](O)[C@H](O)[C@H]1O [AuP5, [Au^I(SSC‐Inp‐GlcN3)(PPh3)]] | 2.5 ± 0.5

Tested on: RC‐124 cells
Assay: Cell growth inhibition assay (Crystal Violet), non-tumor reference
Format: cell-based, human
Settings: RC‐124 non‐malignant kidney epithelial cells, 96 h incubation, mean ± SD of three independent experiments
Protocol: as §1
Human non-malignant kidney epithelial (RC-124) cells were maintained in McCoy’s 5A Medium (modified to contain 1.5 mM L-glutamine and 2.2 g L-1 sodium bicarbonate; Life Technologies).
as §3
(Biochrom) and passaged once a week.
For experiments involving RC-124 cells, microtiter plates were pre-treated as follows. 30 µL of a 1.5% m/v sterilized gelatine solution were added to each well of flat-bottomed 96-well plates, plates were covered with their lids and incubated for 1 h at 37°C. The excess solution was then removed, wells were washed with PBS solution (pH 7.4), and new cell culture medium was added.
as §5, §6, §7, §8, §9

Row | Structure (SMILES) | IC50 [µM]
25 | O=C(NC1C(O)OC(CO)C(O)C1O)C1CCN(C2=[S+][Au-]([Br])([Br])[S]2)CC1 (mixture of isomers) [Au3, [Au^IIIBr2(SSC‐Inp‐GlcN1)]] | > 50
26 | CO[C@H]1O[C@H](CNC(=O)C2CCN(C3=[S+][Au-]([Br])([Br])[S]3)CC2)[C@@H](O)[C@H](O)[C@H]1O [Au5, [Au^IIIBr2(SSC‐Inp‐GlcN3)]] | 18.8 ± 1.7
